The test system of this data set is EL4 lymphoma. The data set is described as follows: Repeated treatments of mice bearing ip EL4 lymphoma. The class given is in vivo, C57BL/6 mice. To be noted: for Relative effectivity among derivatives: comparison in words; for Antitumor (curing) effect in words: injected intraperitoneally at different intervals after tumor cell innoculation; for Median survival time: mice that died of the tumor. Also on record: Median survival time: unit not given here. The procedure:
Four to six weeks old C57BL/6 mice were innoculated with the ascite lymphoma tumor EL4.BU. Daunomycin and its derivatives were injected intraperitoneally at different intervals after tumor cell innoculation.
Some of the mice were totally cured, with no physical manifestation of any side effects of the tested derivatized daunomycin compounds.
10^6 EL4 lymphoma cells were innoculated ip into C57BL/6 males. Drug
administration started 2 days later.
*Refers to the group of mice that died of the tumor.

“Also recorded” adds a separate entry of the source.

For the compound (ornithyl)2 -daunomycin [(Orn)2 -DM], the “Relative effectivity among derivatives” value was “much more effective than with ornithine” and the “Antitumor (curing) effect in words” value was “complete cure, or a significantly prolonged life span with no apparent toxic effects”. Besides, where the note is “300 μg/mouse, 8 injections ip”, the “Long time survivors (over 60 days)” value is reported as 6 and the “Toxic deaths/No. mice treated” value is given as 1/8.

For `COc1cccc2c1C(=O)c1c(O)c3c(c(O)c1C2=O)C[C@@](O)(C(C)=O)C[C@@H]3OC1CC(NC(=O)C(N)CCN)C(O)C(C)O1.[Cl-].[Na+]` (some centres unmarked) [Dbu-DM, diaminobutyryl-daunomycin], the “Antitumor (curing) effect in words” value is reported as “complete cure, or a significantly prolonged life span with no apparent toxic effects”. Further, where the note is “650 μg/mouse, 8 injections ip”, the “Long time survivors (over 60 days)” value is 12, the “Toxic deaths/No. mice treated” value is 0/14 and the Median survival time is 31.

On to arginyl-daunomycin [Arg-DM], for which, where the note is “250 μg/mouse, 7 injections ip”, the “Long time survivors (over 60 days)” value is listed as 3, the “Toxic deaths/No. mice treated” value is given as 0/4 and the Median survival time worked out at 35. Under “400 μg/mouse, 6 injections ip”, the “Long time survivors (over 60 days)” value is listed as 3 and the “Toxic deaths/No. mice treated” value was 1/4.

Regarding `COc1cccc2c1C(=O)c1c(O)c3c(c(O)c1C2=O)C[C@@](O)(C(C)=O)C[C@@H]3O[C@H]1C[C@H](N)[C@H](O)[C@H](C)O1` [Daunomycin, daunomycin], the “Antitumor (curing) effect in words” value was “no satisfactory curing effects; also recorded: very narrow border-zone between excessive toxicity and poor curative efficiency”. For the same compound, under “20 μg/mouse, 5 injections ip”, the “Long time survivors (over 60 days)” value is 1, the “Toxic deaths/No. mice treated” value is on record as 1/8 and the Median survival time was determined as 17. Moreover, for the setting “20 μg/mouse, 6 injections ip”, the “Long time survivors (over 60 days)” value stood at 0, the “Toxic deaths/No. mice treated” value is on record as 4/8 and the Median survival time was 15. Where the note is “25 μg/mouse, 4 injections ip”, the “Long time survivors (over 60 days)” value is 0, the “Toxic deaths/No. mice treated” value is 2/8 and the Median survival time turned out to be 14.5. For the setting “25 μg/mouse, 5 injections ip”, the “Long time survivors (over 60 days)” value was 1, the “Toxic deaths/No. mice treated” value was 2/8 and the Median survival time is 24.5. Also, for the setting “30 μg/mouse, 4 injections ip”, the “Long time survivors (over 60 days)” value is 2, the “Toxic deaths/No. mice treated” value was 4/8 and the Median survival time stood at 25. Besides, under “40 μg/mouse, 1 injection ip”, the “Long time survivors (over 60 days)” value stood at 0, the “Toxic deaths/No. mice treated” value was 2/8 and the Median survival time is recorded as 19. Further, under “40 μg/mouse, 4 injections ip”, the “Long time survivors (over 60 days)” value came out at 0, the “Toxic deaths/No. mice treated” value is 4/8 and the Median survival time is 18. Under “50 μg/mouse, 2 injections ip”, the “Long time survivors (over 60 days)” value stood at 0, the “Toxic deaths/No. mice treated” value is 2/8 and the Median survival time came to 19. Also, where the note is “60 μg/mouse, 1 injection ip”, the “Long time survivors (over 60 days)” value was 0, the “Toxic deaths/No. mice treated” value was 6/8 and the Median survival time is 18. Where the note is “80 μg/mouse, 1 injection ip”, the “Long time survivors (over 60 days)” value amounted to 0, the “Toxic deaths/No. mice treated” value is 8/8 and the Median survival time was 17. Further, where the note is “doses exceeding 70 μg/mouse in a single injection, or lower doses in multiple injections”, the “Effects at high doses” value is “acute toxicity marked by a generally wasted appearance and death, to no efficient depression of the growing tumor”.

Regarding (lysyl)2 -daunomycin [(Lys)2 -DM], the “Antitumor (curing) effect in words” value is on record as “complete cure, or a significantly prolonged life span with no apparent toxic effects”. Where the note is “250 μg/mouse, 8 injections ip”, the “Long time survivors (over 60 days)” value amounted to 6, the “Toxic deaths/No. mice treated” value is listed as 1/8 and the Median survival time came to 24.

In the case of `COc1cccc2c1C(=O)c1c(O)c3c(c(O)c1C2=O)C[C@@](O)(C(C)=O)C[C@@H]3O[C@H]1C[C@H](NC(=O)[C@H](CCCCN)NC(=O)[C@H](CCCCN)NC(=O)[C@@H](N)CCCCN)[C@H](O)[C@H](C)O1` [(Lys)3 -DM, (lysyl)3 -daunomycin], the “Antitumor (curing) effect in words” value was “complete cure, or a significantly prolonged life span with no apparent toxic effects”. Moreover, under “250 μg/mouse, 8 injections ip”, the “Long time survivors (over 60 days)” value came out at 6, the “Toxic deaths/No. mice treated” value is listed as 1/8 and the Median survival time came to 25.

For the compound `COc1cccc2c1C(=O)c1c(O)c3c(c(O)c1C2=O)C[C@@](O)(C(C)=O)C[C@@H]3O[C@H]1C[C@H](NC(=O)[C@@H](N)Cc2cnc[nH]2)[C@H](O)[C@H](C)O1` [histidyl-daunomycin], the “Antitumor (curing) effect in words” value was “complete cure, or a significantly prolonged life span with no apparent toxic effects”.

Turning to lysyl-daunomycin [Lys-DM], the “Antitumor (curing) effect in words” value was “complete cure, or a significantly prolonged life span with no apparent toxic effects”. Where the note is “200 μg/mouse, 4 injections ip”, the “Long time survivors (over 60 days)” value came out at 0, the “Toxic deaths/No. mice treated” value was 0/8 and the Median survival time turned out to be 28. Under “250 μg/mouse, 8 injections ip”, the “Long time survivors (over 60 days)” value amounted to 5, the “Toxic deaths/No. mice treated” value is reported as 2/8 and the Median survival time was 26.

As for aspartyl-lysyl-daunomycin [Asp-Lys-DM], the “Relative effectivity among derivatives” value is on record as “more effective than aspartyl-daunomycin” and the “Antitumor (curing) effect in words” value is reported as “complete cure, or a significantly prolonged life span with no apparent toxic effects”. Under “600 μg/mouse, 8 injections ip”, the “Long time survivors (over 60 days)” value stood at 6, the “Toxic deaths/No. mice treated” value is 0/8 and the Median survival time is on record as 31.

On to “(ornithyl)n -daunomycin where n=2 to 5 [(Orn)5 -DM]”, for which, for the setting “300 μg/mouse, 8 injections ip”, the “Long time survivors (over 60 days)” value is 2, the “Toxic deaths/No. mice treated” value is recorded as 1/8 and the Median survival time was 38.

Turning to lysyl-leucyl-daunomycin, the “Relative effectivity among derivatives” value is reported as “more effective than leucyl-daunomycin”.

For `COc1cccc2c1C(=O)c1c(O)c3c(c(O)c1C2=O)CC(O)(C(C)=O)CC3OC1CC(NC(=O)C(CCCNC(=N)N)NC(=O)C(N)CCCNC(=N)N)C(O)C(C)O1` (centres unmarked) [(arginyl)2 -daunomycin, arginyl-arginyl-daunomycin], the “Antitumor (curing) effect in words” value is “complete cure, or a significantly prolonged life span with no apparent toxic effects”.

On to `COc1cccc2c1C(=O)c1c(O)c3c(c(O)c1C2=O)C[C@@](O)(C(C)=O)C[C@@H]3O[C@H]1C[C@H](NC(=O)C(N)Cc2ccc(O)c(O)c2)[C@H](O)[C@H](C)O1` (some centres unmarked) [DOPA-DM, dihydroxyphenylalanyl-daunomycin], for which, under “240 μg/mouse, 8 injections ip”, the “Long time survivors (over 60 days)” value was 3, the “Toxic deaths/No. mice treated” value is on record as 0/4 and the Median survival time is 28.

Values taken from patent US4256632A, “Novel derivatives of daunomycin” (Yeda Research and Development Co. Ltd., priority 1978, dated 1981).
